Each block holds one compound with its values, some of them ahead of it.
What was measured:
[1] = Drug uptake in macaque brain at 3680 to 4035 Ci/mmol, iv measured as percentage of injected dose by PET imaging at 7.5 mins relative to control; format: ADME, organism-based; details: macaca, in vivo, 0.125 h, dose 3680-4035 Ci/mmol
[2] = target: T1, 5-hydroxytryptamine receptor 1B (Cavia porcellus, UniProt O08892); assay: Binding affinity to guinea pig 5-HT1B receptor assessed as dissociation constant by autoradiographic analysis
T1 sequence (O08892 whole entry): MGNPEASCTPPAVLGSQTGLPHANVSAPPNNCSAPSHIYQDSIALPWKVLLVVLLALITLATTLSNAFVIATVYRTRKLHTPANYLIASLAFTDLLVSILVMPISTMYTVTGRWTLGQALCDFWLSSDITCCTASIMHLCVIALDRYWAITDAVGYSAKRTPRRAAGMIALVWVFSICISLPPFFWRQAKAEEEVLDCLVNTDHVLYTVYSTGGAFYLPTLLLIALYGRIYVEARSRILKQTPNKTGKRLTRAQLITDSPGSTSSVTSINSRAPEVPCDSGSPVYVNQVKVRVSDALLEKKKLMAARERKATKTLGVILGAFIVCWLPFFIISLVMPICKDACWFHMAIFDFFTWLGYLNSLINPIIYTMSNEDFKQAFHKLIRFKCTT

[3] = target: T1, 5-hydroxytryptamine receptor 1B; assay: Binding affinity to guinea pig 5-HT1B receptor assessed as inhibition constant by autoradiographic analysis
[4] = Ratio of drug uptake in macaque brain frontal cortex to cerebellum at 3680 to 4035 Ci/mmol, iv by PET imaging upto 100 mins relative to control; format: ADME, organism-based; details: macaca, in vivo, 1.667 h, dose 3680-4035 Ci/mmol
[5] = Ratio of drug uptake in macaque brain striatopallidal complex to cerebellum at 3680 to 4035 Ci/mmol, iv by PET imaging upto 100 mins relative to control; format: ADME, organism-based; details: macaca, in vivo, 1.667 h, dose 3680-4035 Ci/mmol
[6] = Ratio of drug uptake in macaque brain occipital cortex to cerebellum at 3680 to 4035 Ci/mmol, iv by PET imaging upto 100 mins relative to control; format: ADME, organism-based; details: macaca, in vivo, 1.667 h, dose 3680-4035 Ci/mmol
[7] = Ratio of drug uptake in macaque brain thalamus to cerebellum at 3680 to 4035 Ci/mmol, iv by PET imaging upto 100 mins relative to control; format: ADME, organism-based; details: macaca, in vivo, 1.667 h, dose 3680-4035 Ci/mmol
[8] = Drug uptake in plasma (unknown origin) as parent compound by measuring radioactivity at 30 mins postinjection relative to control; format: ADME, organism-based; details: in vivo, 0.5 h
[9] = Ratio of drug distribution in rat hippocampus to cerebellum at 30 mins postinjection; format: ADME, organism-based; details: in vivo, 0.5 h
[10] = target: T2, 5-hydroxytryptamine receptor 1A (Homo sapiens, UniProt P08908)
T2 sequence (P08908 whole entry): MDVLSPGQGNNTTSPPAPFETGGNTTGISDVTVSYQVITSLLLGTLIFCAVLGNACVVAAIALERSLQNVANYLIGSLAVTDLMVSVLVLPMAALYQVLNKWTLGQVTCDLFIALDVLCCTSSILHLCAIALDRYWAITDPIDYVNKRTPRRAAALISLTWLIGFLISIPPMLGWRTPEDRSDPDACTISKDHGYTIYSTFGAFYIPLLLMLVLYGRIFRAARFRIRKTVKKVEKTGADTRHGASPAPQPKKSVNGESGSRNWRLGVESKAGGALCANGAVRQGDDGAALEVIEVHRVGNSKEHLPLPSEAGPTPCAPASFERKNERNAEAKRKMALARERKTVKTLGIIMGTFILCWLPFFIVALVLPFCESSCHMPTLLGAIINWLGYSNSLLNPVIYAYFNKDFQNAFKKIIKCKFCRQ

[11] = Drug uptake ratio in Sprague-Dawley rat brain cingulate cortex to cerebellum measured after 20 to 30 mins by camera ClearPET LYSO/LuYAP Phoswich-scanner analysis; format: ADME, tissue-based; details: time 20-30 min
[12] = Drug uptake ratio in cat brain dorsal raphe nucleus to cerebellum measured after 20 to 30 mins by camera ClearPET LYSO/LuYAP Phoswich-scanner analysis; format: ADME, tissue-based, Felis catus; details: time 20-30 min
[13] = target: T2, 5-hydroxytryptamine receptor 1A; remark: listed apart in the source
[14] = target: T2, 5-hydroxytryptamine receptor 1A; assay: Inhibition of 5-HT1A receptor (unknown origin)
[15] = target: T3, Alpha-1A adrenergic receptor (Homo sapiens, UniProt P35348); assay: Inhibition of alpha 1A adrenergic receptor (unknown origin)
T3 sequence (P35348 whole entry): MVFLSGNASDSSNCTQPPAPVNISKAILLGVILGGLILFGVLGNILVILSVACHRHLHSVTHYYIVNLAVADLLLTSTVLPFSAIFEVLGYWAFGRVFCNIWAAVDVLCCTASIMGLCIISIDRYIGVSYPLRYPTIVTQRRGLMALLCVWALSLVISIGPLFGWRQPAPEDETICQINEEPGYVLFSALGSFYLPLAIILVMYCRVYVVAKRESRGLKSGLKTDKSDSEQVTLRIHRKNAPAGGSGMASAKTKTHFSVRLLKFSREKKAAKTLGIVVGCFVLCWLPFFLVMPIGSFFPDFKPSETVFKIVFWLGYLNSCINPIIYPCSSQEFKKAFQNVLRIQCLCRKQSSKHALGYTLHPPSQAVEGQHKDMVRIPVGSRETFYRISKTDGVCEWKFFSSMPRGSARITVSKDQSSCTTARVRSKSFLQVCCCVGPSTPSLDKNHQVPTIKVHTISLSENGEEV

[16] = Drug metabolism in plasma (unknown origin) assessed as parent compound remaining measured at 55 mins relative to control; format: ADME; details: read-out: Stability
[17] = Drug uptake in cynomolgus monkey in brain administered IV measured at 7.5 mins relative to control; format: ADME, tissue-based, Macaca fascicularis; details: in vivo, 0.125 h
[18] = Ratio of drug distribution in cynomolgus monkey hippocampus to cerebellum measured at 30 mins postinjection; format: ADME, organism-based, Macaca fascicularis; details: in vivo, 0.5 h
[19] = Drug uptake in monkey brain measured after 7 mins postinjection; format: ADME, organism-based, Macaca mulatta; details: rhesus monkey, in vivo
[20] = Drug uptake in rat brain; format: ADME, tissue-based; details: in vivo
[21] = target: D(2) dopamine receptor (Rattus norvegicus, UniProt P61169); assay: Binding affinity to rat brain homogenate D2 receptor assessed as dissociation constant; format: tissue-based
D(2) dopamine receptor, sequence (P61169 whole entry): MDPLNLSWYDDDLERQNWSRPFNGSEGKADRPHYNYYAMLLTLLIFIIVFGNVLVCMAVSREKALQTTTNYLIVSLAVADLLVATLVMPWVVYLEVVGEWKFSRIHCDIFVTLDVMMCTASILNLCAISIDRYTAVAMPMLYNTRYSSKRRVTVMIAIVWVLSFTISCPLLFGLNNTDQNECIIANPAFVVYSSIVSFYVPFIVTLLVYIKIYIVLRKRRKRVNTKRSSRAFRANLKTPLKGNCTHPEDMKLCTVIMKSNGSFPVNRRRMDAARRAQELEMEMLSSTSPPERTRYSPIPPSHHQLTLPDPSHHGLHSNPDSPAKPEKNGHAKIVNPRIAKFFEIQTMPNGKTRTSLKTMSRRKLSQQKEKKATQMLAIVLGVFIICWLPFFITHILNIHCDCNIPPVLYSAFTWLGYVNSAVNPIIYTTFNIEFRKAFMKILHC

[22] = target: T4, 5-hydroxytryptamine receptor 1A (Rattus norvegicus, UniProt P19327); assay: Binding affinity to rat brain homogenate 5-HT1A receptor assessed as dissociation constant; format: tissue-based
T4 sequence (P19327 whole entry): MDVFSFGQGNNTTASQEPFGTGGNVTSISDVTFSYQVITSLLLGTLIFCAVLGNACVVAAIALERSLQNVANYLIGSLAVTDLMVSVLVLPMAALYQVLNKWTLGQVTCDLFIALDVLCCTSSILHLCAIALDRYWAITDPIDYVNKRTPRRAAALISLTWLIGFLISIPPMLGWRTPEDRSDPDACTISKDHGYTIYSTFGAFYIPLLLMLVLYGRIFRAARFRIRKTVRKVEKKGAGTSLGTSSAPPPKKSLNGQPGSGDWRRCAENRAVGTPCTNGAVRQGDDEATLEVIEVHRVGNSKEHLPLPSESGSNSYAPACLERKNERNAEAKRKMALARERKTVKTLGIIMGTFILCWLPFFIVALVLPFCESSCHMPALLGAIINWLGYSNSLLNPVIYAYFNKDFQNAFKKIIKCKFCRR

[23] = target: Sodium-dependent serotonin transporter (Rattus norvegicus, UniProt P31652); assay: Binding affinity to rat brain homogenate SERT receptor assessed as dissociation constant; format: tissue-based
Sodium-dependent serotonin transporter, sequence (P31652 whole entry): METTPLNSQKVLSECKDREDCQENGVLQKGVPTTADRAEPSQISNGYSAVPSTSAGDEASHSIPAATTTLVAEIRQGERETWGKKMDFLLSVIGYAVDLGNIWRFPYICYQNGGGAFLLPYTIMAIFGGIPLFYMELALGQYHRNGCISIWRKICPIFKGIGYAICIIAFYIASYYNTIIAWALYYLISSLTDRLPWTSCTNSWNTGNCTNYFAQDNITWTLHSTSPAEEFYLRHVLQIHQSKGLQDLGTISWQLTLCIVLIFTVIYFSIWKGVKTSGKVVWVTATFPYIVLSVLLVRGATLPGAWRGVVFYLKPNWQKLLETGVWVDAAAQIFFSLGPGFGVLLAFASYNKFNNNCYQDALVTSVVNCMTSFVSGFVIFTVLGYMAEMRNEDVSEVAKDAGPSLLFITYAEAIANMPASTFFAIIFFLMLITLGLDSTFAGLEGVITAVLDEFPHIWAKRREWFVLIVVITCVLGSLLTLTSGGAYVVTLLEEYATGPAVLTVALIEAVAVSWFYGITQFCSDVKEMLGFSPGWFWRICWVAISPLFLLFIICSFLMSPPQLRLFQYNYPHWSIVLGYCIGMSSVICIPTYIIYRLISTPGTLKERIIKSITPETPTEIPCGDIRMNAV

[24] = target: D(4) dopamine receptor (Homo sapiens, UniProt P21917); assay: Binding affinity to human D4 receptor expressed in CHO cells assessed as inhibition constant; format: cell-based
D(4) dopamine receptor, sequence (P21917 whole entry): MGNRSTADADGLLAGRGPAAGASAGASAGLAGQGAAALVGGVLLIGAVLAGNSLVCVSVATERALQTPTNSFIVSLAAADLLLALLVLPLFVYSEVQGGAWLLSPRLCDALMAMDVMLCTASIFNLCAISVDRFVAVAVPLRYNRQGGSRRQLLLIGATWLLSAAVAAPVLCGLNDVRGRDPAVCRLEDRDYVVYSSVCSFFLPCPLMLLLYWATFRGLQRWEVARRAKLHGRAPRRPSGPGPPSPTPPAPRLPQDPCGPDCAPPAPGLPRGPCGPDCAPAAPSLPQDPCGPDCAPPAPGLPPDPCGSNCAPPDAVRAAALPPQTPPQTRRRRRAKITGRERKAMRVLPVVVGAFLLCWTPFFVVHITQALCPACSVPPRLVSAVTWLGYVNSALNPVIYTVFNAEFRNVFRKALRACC

[25] = target: T2, 5-hydroxytryptamine receptor 1A; assay: Binding affinity to human 5-HT1A receptor expressed in CHO cells assessed as inhibition constant; format: cell-based
[26] = target: T3, Alpha-1A adrenergic receptor; assay: Binding affinity to human alpha 1A adrenergic receptor expressed in CHO cells assessed as inhibition constant; format: cell-based
[27] = target: 5-hydroxytryptamine receptor 1D (Homo sapiens, UniProt P28221); assay: Binding affinity to human 5-HT1D receptor expressed in CHO cells assessed as inhibition constant; format: cell-based
5-hydroxytryptamine receptor 1D, sequence (P28221 whole entry): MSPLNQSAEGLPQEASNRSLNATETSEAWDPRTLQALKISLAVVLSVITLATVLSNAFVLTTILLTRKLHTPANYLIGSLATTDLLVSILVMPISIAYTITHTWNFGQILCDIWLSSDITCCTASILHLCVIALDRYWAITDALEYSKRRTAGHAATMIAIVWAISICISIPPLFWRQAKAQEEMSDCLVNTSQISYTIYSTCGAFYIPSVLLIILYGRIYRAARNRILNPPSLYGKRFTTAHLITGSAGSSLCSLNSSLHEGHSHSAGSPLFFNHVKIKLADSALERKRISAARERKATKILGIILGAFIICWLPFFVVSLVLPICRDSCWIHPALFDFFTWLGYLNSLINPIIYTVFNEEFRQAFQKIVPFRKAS

[28] = target: 5-hydroxytryptamine receptor 2B (Homo sapiens, UniProt P41595); assay: Binding affinity to human 5-HT2B receptor expressed in CHO cells assessed as inhibition constant; format: cell-based
5-hydroxytryptamine receptor 2B, sequence (P41595 whole entry): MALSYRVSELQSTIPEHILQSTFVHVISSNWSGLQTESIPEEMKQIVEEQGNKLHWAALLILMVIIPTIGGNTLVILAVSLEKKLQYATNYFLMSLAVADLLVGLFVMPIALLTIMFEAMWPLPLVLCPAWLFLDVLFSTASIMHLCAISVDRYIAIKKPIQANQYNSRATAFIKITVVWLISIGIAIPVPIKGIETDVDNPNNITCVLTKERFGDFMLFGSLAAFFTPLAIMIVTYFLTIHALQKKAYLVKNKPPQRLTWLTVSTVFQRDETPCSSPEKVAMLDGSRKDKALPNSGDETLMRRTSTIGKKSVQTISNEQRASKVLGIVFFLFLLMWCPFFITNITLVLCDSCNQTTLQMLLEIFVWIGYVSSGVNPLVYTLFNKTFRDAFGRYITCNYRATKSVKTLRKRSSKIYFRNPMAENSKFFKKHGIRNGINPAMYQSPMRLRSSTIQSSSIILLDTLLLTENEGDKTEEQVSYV

[29] = Drug uptake in cynomolgus monkey frontal cortex administered iv measured as percentage of injected dose by PET imaging relative to control; format: ADME, organism-based, Macaca fascicularis; details: in vivo
[30] = Binding affinity to pig 5-HT1B receptor (unknown origin) assessed as inhibition constant
[31] = Binding affinity to rhesus monkey 5-HT1B receptor assessed as inhibition constant; parameters: species or system Macaca mulatta
[32] = Binding affinity to rhesus monkey 5-HT1D receptor assessed as inhibition constant; parameters: species or system Macaca mulatta
[33] = Ratio of drug biodistribution in rat hippocampus to cerebellum at 30 mins postinjection; format: ADME, organism-based; details: in vivo, 0.5 h
[34] = Ratio of drug uptake in monkey hippocampus to cerebellum; format: ADME, tissue-based, Macaca mulatta; details: rhesus monkey, in vivo
[35] = Ratio of drug uptake in monkey anterior cingulate cortex to cerebellum; format: ADME, tissue-based, Macaca mulatta; details: rhesus monkey, in vivo
[36] = Ratio of drug uptake in Rhesus monkey temporal cortex to cerebellum; format: ADME, tissue-based, Macaca mulatta; details: in vivo
[37] = Drug metabolism in Rhesus monkey plasma assessed as unmetabolized compound after 3 hrs by TLC analysis; format: ADME, cell-free, Macaca mulatta; details: read-out: Stability
[38] = Ratio of drug uptake in Rhesus monkey raphe to cerebellum; format: ADME, tissue-based, Macaca mulatta; details: in vivo
[39] = Ratio of drug uptake in Rhesus monkey frontal cortex to cerebellum; format: ADME, tissue-based, Macaca mulatta, Brain frontal cortex/cerebellum; details: in vivo
[40] = target: T2, 5-hydroxytryptamine receptor 1A; assay: Binding affinity to 5-HT1A receptor (unknown origin) assessed as inhibition constant by scintillation spectroscopic analysis
[41] = target: T2, 5-hydroxytryptamine receptor 1A; assay: Displacement of [3H]-8-OH-DPAT from 5HT1A receptor (unknown origin)
[42] = Drug metabolism in monkey plasma assessed as unchanged compound at 120 mins postinjection relative to control; format: ADME, organism-based, Macaca mulatta; details: rhesus monkey, read-out: Stability
[43] = Drug uptake ratio in cynomolgus monkey globus pallidus to cerebellum at 30 to 40 mins postinjection; format: ADME, organism-based, Macaca fascicularis; details: in vivo, time 30-40 min
[44] = Drug uptake ratio in cynomolgus monkey occipital cortex to cerebellum at 30 to 40 mins postinjection; format: ADME, organism-based, Macaca fascicularis; details: in vivo, time 30-40 min
[45] = Ratio of drug uptake in baboon cingulate cortex to cerebellum; format: ADME, tissue-based, Papio; details: in vivo
[46] = Ratio of drug uptake in baboon insula to cerebellum; format: ADME, tissue-based, Papio; details: in vivo
[47] = Ratio of drug uptake in baboon hippocampus to cerebellum; format: ADME, tissue-based, Papio; details: in vivo
[48] = Ratio of drug uptake in baboon hippocampus to cerebellum at 175 mins; format: ADME, tissue-based, Papio; details: in vivo, 2.917 h
[49] = Ratio of drug uptake in baboon insular cortex to cerebellum at 175 mins; format: ADME, tissue-based, Papio; details: in vivo, 2.917 h
[50] = Ratio of drug uptake in baboon anterior cingulate cortex to cerebellum at 175 mins; format: ADME, tissue-based, Papio; details: in vivo, 2.917 h

Drug uptake [1]: 3%
Kd [2]: 0.4 nM
Ki [3]: 0.01 nM
Ratio [4]: 2.6
Ratio [5]: 4.1
Ratio [6]: 4.2
Ratio [7]: 2.6
Structure (SMILES): Cc1ccc(N2CCN([11CH3])CC2)c2oc(C(=O)Nc3ccc(N4CCOCC4)cc3)cc(=O)c12

Drug uptake [8]: 20%
Ratio [9]: 5.6
Kd [10]: 0.34 nM
Structure (SMILES): COc1ccccc1N1CCN(CCN(C(=O)c2ccc([18F])cc2)c2ccccn2)CC1

IC50 [15]: 43 nM
Structure (SMILES): [11CH3]Oc1cccc2c1CCCC2CCCN1CCN(c2ccccc2)CC1 (stereo not drawn)

SUV [19]: 7
Ki [13]: 0.98 nM
SUV [20]: 2
Structure (SMILES): [11CH3]Oc1ccc2cccc(N3CCN(CCNC(=O)c4ccc(F)cc4)CC3)c2c1

Ki [31]: 1.2 nM
Ki [32]: 12 nM
Structure (SMILES): COC(C)(C)c1ccc(N2CC[C@@H](Cc3ccccc3N3CCN(C)CC3)C2=O)cc1

Ki [13]: < 1 nM
Ratio [33]: 5.5
Structure (SMILES): COc1ccccc1N1CCN(CCN(C(=O)c2ccc([18F])cc2)c2ncccn2)CC1

More lines, now with the values behind:

Structure (SMILES): Cc1cnc(CNCC2(F)CCN(C(=O)c3ccc([18F])c(Cl)c3)CC2)nc1
Ratio [11]: 1.6
Ratio [12]: 1.5
Ki [13]: 2.24 nM

Structure (SMILES): CCCN(CCC)C1CCc2ccc3[nH]cc(C=O)c3c2C1 (stereo not drawn)
IC50 [14]: 1.2 nM
Ki [13]: 1.2 nM

Structure (SMILES): COc1ccccc1N1CCN(CCN(C(=O)C2CCCCC2)c2cccc([18F])n2)CC1
remaining at 55 min [16]: 20%
Drug uptake [17]: 4.33%
Ratio [18]: 1.4

Structure (SMILES): COc1ccccc1N1CCN(CCn2cc(COCC(COc3ccc([Si]([18F])(C(C)(C)C)C(C)(C)C)cc3)OCc3cn(CCN4CCN(c5ccccc5OC)CC4)nn3)nn2)CC1 (stereo not drawn)
Ki [21]: 2.2 nM
Ki [22]: 0.099 nM
Ki [23]: 9.8 nM

Structure (SMILES): O=C(NCCN1CCN(c2cccc3c2OCCO3)CC1)c1ccc(F)cc1
Ki [24]: 4 nM
Ki [25]: 0.1 nM
Ki [26]: 40 nM
Ki [27]: 25 nM
Ki [28]: 46 nM

Structure (SMILES): CCC(=O)N1CCN(c2ccc(NC(=O)c3cc(=O)c4cc(F)cc(N5CCN([11CH3])CC5)c4o3)cc2)CC1
Drug uptake [29]: 0.7%
Ki [30]: 2 nM

Structure (SMILES): O=C(NCCN1CCN(c2cccc3c2OCCO3)CC1)c1ccc([18F])cc1
Ratio [34]: 1.7
Ratio [35]: 1.7

Structure (SMILES): COc1ccccc1N1CCN(CCN(C(=O)C2CCC(C[18F])CC2)c2ccccn2)CC1 (stereo not drawn)
Ratio [36]: 10
remaining at 3 h [37]: 30%
Ratio [38]: 3.3
Ratio [39]: 9

Structure (SMILES): CNc1nc(CNCC2(F)CCN(C(=O)c3ccc(F)c(Cl)c3)CC2)ccc1C
Ki [40]: 0.04 nM

Structure (SMILES): CSc1cccc(C(=O)NC[C@@H]2CCCN2CCc2ccccc2)c1
Ki [41]: 4.3 nM

Structure (SMILES): [11CH3]N1CCN(c2cc(F)cc3c(=O)cc(C(=O)Nc4ccc(N5CCOCC5)c(F)c4)oc23)CC1
remaining at 2 h [42]: > 40%
Ratio [43]: 2.5
Ratio [44]: 2.2

Structure (SMILES): Cn1c(=O)cnn(CCCCN2CCN(c3ccccc3O[11CH3])CC2)c1=O
Ratio [45]: > 4.7
Ratio [46]: > 4.7
Ratio [47]: > 4.7

Structure (SMILES): Cn1c(=O)cnn(CCCCN2CCN(c3ccccc3OCC[18F])CC2)c1=O
Ratio [48]: 4
Ratio [49]: 1.8
Ratio [50]: 2.3
